Drawing on patent publication US10308637B2 (LifeSci Pharmaceuticals, Inc., priority 2015, dated 2019), this text covers EC50 for 34 molecules.

pEC50: −log10 of the molar value.

A short description of the test: Contact Assay (percentage inhibition from fluorescence intensity). The test is classed as biochemical. On the procedure:
The percentage inhibition was calculated using the following equation:
[formula] where, Mean(BG) is the average value of the fluorescence intensity of the background wells and Mean(PC) is the average value of the fluorescence intensity of the positive control wells.
Table 4 provides the EC50 values of various compounds disclosed herein.
For orientation: pEC50 means the EC50 on a negative log10 scale, so that one unit is a factor of ten. Molecule `CC(C)(O)c1cc(Cc2cc(C(=O)NCc3n[nH]c4ccc(Cl)cc34)ccn2)cc2cc(Cl)cnc12` [Example 225, N-((5-chloro-1H-indazol-3-yl)methyl)-2-((3-chloro-8-(2-hydroxypropan-2-yl)quinolin-6-yl)methyl)isonicotinamide] showed a pEC50 of 6.00 to 7.00.

Molecule `Cc1cc(N)nc(C)c1CNC(=O)c1ccnc(Cc2cnc3cc(F)c(Cl)cc3c2)c1` [Example 226, N-((6-amino-2,4-dimethylpyridin-3-yl)methyl)-2-((6-chloro-7-fluoroquinolin-3-yl)methyl)isonicotinamide] had a pEC50 not below 7.00.

Consider `Cc1cc(N)nc(C)c1CNC(=O)c1ccnc(Cc2ccc3ncc(C(F)(F)F)cc3c2)c1` [Example 228, N-((6-amino-2,4-dimethylpyridin-3-yl)methyl)-2-((3-(trifluoromethyl)quinolin-6-yl)methyl)isonicotinamide], for which the pEC50 was not below 7.00.

`Cc1nc(N)ccc1CNC(=O)c1ccnc(Cc2ccc3ncc(C(F)(F)F)cc3c2)c1` [Example 229, N-((6-amino-2-methylpyridin-3-yl)methyl)-2-((3-(trifluoromethyl)quinolin-6-yl)methyl)isonicotinamide]: the pEC50 was not below 7.00.

`O=C(NCc1cc2c(Cl)c[nH]c2cc1F)c1ccnc(Cc2ccc3ncc(C(F)(F)F)cc3c2)c1` [Example 230, N-((3-chloro-6-fluoro-1H-indol-5-yl)methyl)-2-((3-(trifluoromethyl)quinolin-6-yl)methyl)isonicotinamide] gave a negative logarithm of the EC50 (pEC50) of 6.00 to 7.00.

`O=C(NCc1cnc2[nH]cc(Cl)c2c1)c1ccnc(Cc2ccc3ncc(C(F)(F)F)cc3c2)c1` [Example 231, N-((3-chloro-1H-pyrrolo[2,3-b]pyridin-5-yl)methyl)-2-((3-(trifluoromethyl)quinolin-6-yl)methyl)isonicotinamide] gave a pEC50 of 6.00 to 7.00.

The molecule `Nc1nccc2cc(CNC(=O)c3ccnc(Cc4ccc5ncc(C(F)(F)F)cc5c4)c3)ccc12` [Example 232, N-((1-aminoisoquinolin-6-yl)methyl)-2-((3-(trifluoromethyl)quinolin-6-yl)methyl)isonicotinamide] had a negative logarithm of the EC50 (pEC50) not below 7.00.

Turning to `O=C(NCc1ccc2[nH]cc(Cl)c2c1F)c1ccnc(Cc2ccc3ncc(C(F)(F)F)cc3c2)c1` [Example 234, N-((3-chloro-4-fluoro-1H-indol-5-yl)methyl)-2-((3-(trifluoromethyl)quinolin-6-yl)methyl)isonicotinamide], the negative-log EC50 (pEC50) is 6.00 to 7.00.

`Cc1cc(N)nc(C)c1CNC(=O)c1ccnc(Cc2cc(S(N)(=O)=O)c3ncc(Cl)cc3c2)c1` [Example 235, N-((6-amino-2,4-dimethylpyridin-3-yl)methyl)-2-((3-chloro-8-sulfamoylquinolin-6-yl)methyl)isonicotinamide] showed a pEC50 not below 7.00.

Consider `Cc1nc(N)ccc1CNC(=O)c1ccnc(Cc2cc(S(N)(=O)=O)c3ncc(Cl)cc3c2)c1` [Example 236], for which the pEC50 was not below 7.00.

For the molecule `Cc1cc(N)nc(C)c1CNC(=O)c1ccnc(Cc2ccc3nc(C)c(Cl)cc3c2)c1` [Example 238, N-((6-amino-2,4-dimethylpyridin-3-yl)methyl)-2-((3-chloro-2-methylquinolin-6-yl)methyl)isonicotinamide], the pEC50 was not below 7.00.

Regarding `Cc1nc2ccc(Cc3cc(C(=O)NCc4ccc(N)nc4C)ccn3)cc2cc1Cl` [Example 239, N-((6-amino-2-methylpyridin-3-yl)methyl)-2-((3-chloro-2-methylquinolin-6-yl)methyl)isonicotinamide], the pEC50 is 6.00 to 7.00.

As for `Cc1cc(N)nc(C)c1CNC(=O)c1ccnc(Cc2cc(CN)c3ncc(Cl)cc3c2)c1` [Example 241, N-((6-amino-2,4-dimethylpyridin-3-yl)methyl)-2-((8-(aminomethyl)-3-chloroquinolin-6-yl)methyl)isonicotinamide], the negative-log EC50 (pEC50) is not below 7.00.

As for `Cc1cc(N)nc(C)c1CNC(=O)c1ccnc(Cc2ccc3ncc(C4CC4)cc3c2)c1` [Example 243, N-((6-amino-2,4-dimethylpyridin-3-yl)methyl)-2-((3-cyclopropylquinolin-6-yl)methyl)isonicotinamide], the pEC50 is not below 7.00.

In turn, `O=C(NCc1cc2c(Cl)c[nH]c2cc1F)c1ccnc(Cc2ccc3ncc(C4CC4)cc3c2)c1` [Example 245, N-((3-chloro-6-fluoro-1H-indol-5-yl)methyl)-2-((3-cyclopropylquinolin-6-yl)methyl)isonicotinamide] gave a negative logarithm of the EC50 (pEC50) of 6.00 to 7.00.

With `O=C(NCc1cnc2[nH]cc(Cl)c2c1)c1ccnc(Cc2ccc3ncc(C4CC4)cc3c2)c1` [Example 246, N-((3-chloro-1H-pyrrolo[2,3-b]pyridin-5-yl)methyl)-2-((3-cyclopropylquinolin-6-yl)methyl)isonicotinamide], the negative-log EC50 (pEC50) is 6.00 to 7.00.

Take `Nc1nccc2cc(CNC(=O)c3ccnc(Cc4ccc5ncc(C6CC6)cc5c4)c3)ccc12` [Example 247, N-((1-aminoisoquinolin-6-yl)methyl)-2-((3-cyclopropylquinolin-6-yl)methyl)isonicotinamide]: the pEC50 was not below 7.00.

The molecule `O=C(NCc1ccc2[nH]cc(Cl)c2c1F)c1ccnc(Cc2ccc3ncc(C4CC4)cc3c2)c1` [Example 248, N-((3-chloro-4-fluoro-1H-indol-5-yl)methyl)-2-((3-cyclopropylquinolin-6-yl)methyl)isonicotinamide] gave a negative-log EC50 (pEC50) of 6.00 to 7.00.

As for `O=C(NCc1n[nH]c2ccc(Cl)cc12)c1ccnc(Cc2ccc3ncc(C4CC4)cc3c2)c1` [Example 249, N-((5-chloro-1H-indazol-3-yl)methyl)-2-((3-cyclopropylquinolin-6-yl)methyl)isonicotinamide], the negative-log EC50 (pEC50) is 6.00 to 7.00.

Consider `Cc1nc(N)ccc1CNC(=O)c1ccnc(Cc2cc(CN)c3ncc(Cl)cc3c2)c1` [Example 253, N-((6-amino-2-methylpyridin-3-yl)methyl)-2-((8-(aminomethyl)-3-chloroquinolin-6-yl)methyl)isonicotinamide], for which the negative-log EC50 (pEC50) is not below 7.00.

On to `Cc1cc(N)nc(C)c1CNC(=O)c1ccnc(Cc2ccc3ncc(C(C)C)cc3c2)c1` [Example 254, N-((6-amino-2,4-dimethylpyridin-3-yl)methyl)-2-((3-isopropylquinolin-6-yl)methyl)isonicotinamide], for which the negative-log EC50 (pEC50) was not below 7.00.

For `CCCc1cnc2ccc(Cc3cc(C(=O)NCc4c(C)cc(N)nc4C)ccn3)cc2c1` [Example 255, N-((6-amino-2,4-dimethylpyridin-3-yl)methyl)-2-((3-propylquinolin-6-yl)methyl)isonicotinamide], the pEC50 was not below 7.00.

For the molecule `COc1cnc2ccc(Cc3cc(C(=O)NCc4c(C)cc(N)nc4C)ccn3)cc2c1` [Example 264, N-((6-amino-2,4-dimethylpyridin-3-yl)methyl)-2-((3-methoxyquinolin-6-yl)methyl)isonicotinamide], the negative logarithm of the EC50 (pEC50) was not below 7.00.

In turn, `Cc1cc(N)nc(C)c1CNC(=O)c1ccnc(Cc2cc(-c3nnn[nH]3)c3ncc(Cl)cc3c2)c1` [Example 272, N-((6-amino-2,4-dimethylpyridin-3-yl)methyl)-2-((3-chloro-8-(1H-tetrazol-5-yl)quinolin-6-yl)methyl)isonicotinamide] gave a pEC50 of 6.00 to 7.00.

Molecule `Cc1cc(N)nc(C)c1CNC(=O)c1ccnc(C(O)c2ccc3ncc(Cl)cc3c2)c1` (stereo not shown) [Example 275, N-((6-amino-2,4-dimethylpyridin-3-yl)methyl)-2-((3-chloroquinolin-6-yl)(hydroxy)methyl)isonicotinamide] gave a pEC50 of 6.00 to 7.00.

In turn, `Cc1cc(N)nc(C)c1CNC(=O)c1ccnc(C(N)c2ccc3ncc(Cl)cc3c2)c1` (stereo not shown) [Example 276, 2-[Amino-(3-chloro-quinolin-6-yl)-methyl]-N-(6-amino-2,4-dimethyl-pyridin-3-ylmethyl)-isonicotinamide] gave a negative-log EC50 (pEC50) of 6.00 to 7.00.

In the case of `Cc1cc(N)nc(C)c1CNC(=O)c1ccnc(C(C)(O)c2ccc3ncc(Cl)cc3c2)c1` (stereo not shown) [Example 277, N-((6-amino-2,4-dimethylpyridin-3-yl)methyl)-2-(1-(3-chloroquinolin-6-yl)-1-hydroxyethyl)isonicotinamide], the pEC50 is 6.00 to 7.00.

For the molecule `Cc1nc(N)ccc1CNC(=O)c1ccnc(Cc2ccc3ncc(CC(F)F)cc3c2)c1` [Example 279, N-((6-amino-2-methylpyridin-3-yl)methyl)-2-((3-(2,2-difluoroethyl)quinolin-6-yl)methyl)isonicotinamide], the pEC50 is 6.00 to 7.00.

On to `CCc1cnc2ccc(Cc3cc(C(=O)NCc4ccc5c(N)nccc5c4)ccn3)cc2c1` [Example 283, N-((1-aminoisoquinolin-6-yl)methyl)-2-((3-ethylquinolin-6-yl)methyl)isonicotinamide], for which the pEC50 is not below 7.00.

For `CCc1cnc2ccc(Cc3cc(C(=O)NCc4c(C)cc(N)nc4C)ccn3)cc2c1` [Example 286, N-((6-amino-2,4-dimethylpyridin-3-yl)methyl)-2-((3-ethylquinolin-6-yl)methyl)isonicotinamide], the pEC50 is not below 7.00.

`Cc1cnc2c(S(N)(=O)=O)cc(Cc3cc(C(=O)NCc4cc5c(Cl)c[nH]c5cc4F)ccn3)cc2c1` [Example 287, N-((3-chloro-6-fluoro-1H-indol-5-yl)methyl)-2-((3-methyl-8-sulfamoylquinolin-6-yl)methyl)isonicotinamide] had a pEC50 not below 7.00.

Regarding `Cc1cnc2c(S(N)(=O)=O)cc(Cc3cc(C(=O)NCc4n[nH]c5ccc(Cl)cc45)ccn3)cc2c1` [Example 288, N-((5-chloro-1H-indazol-3-yl)methyl)-2-((3-methyl-8-sulfamoylquinolin-6-yl)methyl)isonicotinamide], the pEC50 is 6.00 to 7.00.

Turning to `Cc1cnc2c(S(N)(=O)=O)cc(Cc3cc(C(=O)NCc4ccc5c(N)nccc5c4)ccn3)cc2c1` [Example 289, N-((1-aminoisoquinolin-6-yl)methyl)-2-((3-methyl-8-sulfamoylquinolin-6-yl)methyl)isonicotinamide], the negative logarithm of the EC50 (pEC50) is not below 7.00.

Turning to `Cc1cnc2c(S(N)(=O)=O)cc(Cc3cc(C(=O)NCc4ccc5[nH]cc(Cl)c5c4F)ccn3)cc2c1` [Example 290, N-((3-chloro-4-fluoro-1H-indol-5-yl)methyl)-2-((3-methyl-8-sulfamoylquinolin-6-yl)methyl)isonicotinamide], the pEC50 is 6.00 to 7.00.
